# According to the NIST ThermoML archive (doi:10.1016/j.jct.2014.02.003):
# ± gives the expanded uncertainty stated by the source.
# Experiment: molar enthalpy of vaporization or sublimation
# Details: Crystal, Knudsen effusion method coupled with mass spectrometer, from logarithm of peak intensity
compound,measurement,setting,value
N[C@@H](Cc1ccc(O)cc1)C(=O)O [3-(p-hydroxyphenyl)-L-alanine],molar enthalpy,471.15 K,47.8 ± 0.43 kcal/mol
N[C@@H](Cc1ccccc1)C(=O)O [L-phenylalanine],molar enthalpy,418.15 K,37.8 ± 0.478 kcal/mol
N[C@@H](Cc1c[nH]c2ccccc12)C(=O)O [L-tryptophan],molar enthalpy,450.15 K,44.1 ± 0.55 kcal/mol
O=C(O)c1ccccc1 [benzoic acid],molar enthalpy,308.21 K,21.7 ± 0.454 kcal/mol
